# Source: patent US12239627B2, “Method of treating conditions related to the PGI2 receptor” (Arena Pharmaceuticals, Inc., priority 2014, dated 2025)
# Experiment: Phase 1 multiple ascending dose, dose titration study with healthy subjects (adverse events, tolerated dose)
# Assay type: in vivo, human
# Description: This study was a phase 1, randomized, double-blind, placebo-controlled, multiple-dose, dose titration study. A titration interval of 6 days was employed, with each dose being administered for at least 5 days. One goal was to determine the effect of dose titration on adverse effects.
# In each of two subject cohorts, Cohort 1 and Cohort 2, subjects were treated at each dose level for duration of 5 days with exception of the last dose level which included 7 days of treatment.
# The protocol was amended to provide for an additional cohort, Cohort 3, in order to evaluate a different dose escalation regimen, as disclosed below.
# Cohorts 1 and 2: Two groups of 15 subjects were enrolled and randomized to receive placebo (5 subjects per Cohort) or a starting dose of 0.05 mg Compound 1 (10 subjects per Cohort) on Day I. Once daily (q.d.) dosing continued through 5 days. If tolerated, the next dose escalation (placebo or 0.1 mg q.d. Compound 1) occurred on Day 6 and this dose was administered daily through Day 10.
# Subsequent dose escalations were to occur in the same manner every 6th day for up to 3 additional dose escalations if tolerated (placebo or 0.2, 0.3, and 0.4 mg Compound 1) with the final dose maintained for a duration of 7 days. The dose could be decreased (“de-escalated”) or increased (“re-escalated”) based on assessment of safety and tolerability.
# Cohort 3: One group of 25 subjects (S placebo and 20 active) were enrolled and randomized to receive a starting dose of 0.01 mg Compound 1 twice daily or placebo on Day 1. Twice daily dosing continued through 5 days. If tolerated, the next dose escalation (placebo or Compound 1 0.02 mg twice daily) occurred on Day 6 and this dose was administered daily through Day 10. Subsequent dose escalations were to occur in the same manner every 6th day for up to 4 additional dose escalations if tolerated (placebo or 0.03, 0.04. 0.05, and 0.07 mg twice daily Compound 1). The dose could be decreased (“de-escalated”) or increased (“re-escalated”) based on assessment of safety and tolerability. The doses tested in this cohort were 0.01, 0.02, 0.03, 0.04, 0.05, and 0.07 mg administered twice daily for a total daily dose of 0.02, 0.04, 0.06, 0.08, 0.1, and 0.14 mg, respectively.
# Compound 1 capsules were provided as 0.01 mg (all Cohorts) and 0.1 mg (Cohorts 1 and 2 only) strengths.
# [1] = Cohort 3, twice daily, 0.07 mg (N = 4)
# [2] = Cohort 3, twice daily, Total (all doses) (N = 20)
# [3] = Cohorts 1 and 2, once daily, 0.03 mg (N = 4)
# [4] = Cohorts 1 and 2, once daily, 0.05 mg (N = 20)
# [5] = Cohorts 1 and 2, once daily, 0.1 mg (N = 16)
# [6] = Cohorts 1 and 2, once daily, 0.2 mg (N = 5)
# [7] = Cohorts 1 and 2, once daily, 0.3 mg (N = 1)
# [8] = Cohorts 1 and 2, once daily, 0.4 mg (N = 1)
# [9] = Cohorts 1 and 2, once daily, Total (all doses) (N = 20)
# [10] = Cohorts 1 and 2, 0.05 mg once daily
smiles,measurement,setting,value
"O=C(O)COC[C@H]1CC[C@H](COC(=O)N(c2ccccc2)c2ccc(Cl)cc2)CC1 [Compound 1, 2-(((1r,4r)-4-(((4-chlorophenyl)(phenyl)carbamoyloxy)methyl)cyclohexyl)methoxy)acetic acid]",Adverse Events (no. of subjects) leading to Decrease of Dose: Priapism,[1],0 subjects
same,Adverse Events (no. of subjects) leading to Decrease of Dose: Vomiting,[1],0 subjects
same,Adverse Events (no. of subjects) leading to Decrease of Dose: Abdominal pain,[2],2 subjects
same,Adverse Events (no. of subjects) leading to Decrease of Dose: Arthralgia,[2],2 subjects
same,Adverse Events (no. of subjects) leading to Decrease of Dose: Chest discomfort,[2],1 subjects
same,Adverse Events (no. of subjects) leading to Decrease of Dose: Chest pain,[2],1 subjects
same,Adverse Events (no. of subjects) leading to Decrease of Dose: Diarrhoea,[2],2 subjects
same,Adverse Events (no. of subjects) leading to Decrease of Dose: Dizziness,[2],3 subjects
same,Adverse Events (no. of subjects) leading to Decrease of Dose: Headache,[2],10 subjects
same,Adverse Events (no. of subjects) leading to Decrease of Dose: Jaw pain,[2],1 subjects
same,Adverse Events (no. of subjects) leading to Decrease of Dose: Myalgia,[2],4 subjects
same,Adverse Events (no. of subjects) leading to Decrease of Dose: Nausea,[2],5 subjects
same,Adverse Events (no. of subjects) leading to Decrease of Dose: Palpitations,[2],1 subjects
same,Adverse Events (no. of subjects) leading to Decrease of Dose: Priapism,[2],1 subjects
same,Adverse Events (no. of subjects) leading to Decrease of Dose: Vomiting,[2],1 subjects
same,Tolerability of the starting dose,"Cohort 3, 0.01 mg twice daily",all of the subjects were able to tolerate
same,Tolerability of the first escalation,"Cohort 3, 0.02 mg twice daily",all of the subjects were able to tolerate
same,Subjects who completed the study at the dose,"Cohort 3, 0.03 mg twice daily",Five
same,Subjects able to escalate to the dose level through study completion,"Cohort 3, 0.04 mg twice daily",Two
same,Subjects able to escalate to the dose level through study completion,"Cohort 3, 0.05 mg",Five
same,Tolerability of the dose,"Cohort 3, 0.07 mg twice daily",tolerated through study completion
same,Subjects able to escalate to the dose,"Cohort 3, 0.07 mg twice daily, highest dose level",Two
same,Subjects who discontinued treatment due to an adverse event,"Cohort 3, Day 20",One
same,Subjects who received 0.03 mg as highest dose for at least 3 days,Cohorts 1 and 2,0.03 mg-17 subjects
same,Subjects who received 0.1 mg as highest dose for at least 3 days,Cohorts 1 and 2,0.1 mg-8 subjects
same,Subjects who received 0.2 mg as highest dose for at least 3 days,Cohorts 1 and 2,0.2 mg-1 subjects
same,Subjects who received 0.30 mg as highest dose for at least 3 days,Cohorts 1 and 2,0.30 mg-1 subject
same,Subjects with Final Compound 1 Total Daily Dose of 0.03 mg,Cohorts 1 and 2,0.03 mg-3 subjects
same,Subjects with Final Compound 1 Total Daily Dose of 0.05 mg,Cohorts 1 and 2,0.05 mg-9 subjects
same,Subjects with Final Compound 1 Total Daily Dose of 0.10 mg,Cohorts 1 and 2,0.10 mg-7 subjects
same,Subjects with Final Compound 1 Total Daily Dose of 0.30 mg,Cohorts 1 and 2,0.30 mg-1 subject
same,Adverse Events (no. of subjects) leading to Decrease of Dose: Chest pain,[3],0 subjects
same,Adverse Events (no. of subjects) leading to Decrease of Dose: Diarrhoea,[3],0 subjects
same,Adverse Events (no. of subjects) leading to Decrease of Dose: Erythema,[3],0 subjects
same,Adverse Events (no. of subjects) leading to Decrease of Dose: Headache,[3],0 subjects
same,Adverse Events (no. of subjects) leading to Decrease of Dose: Jaw pain,[3],0 subjects
same,Adverse Events (no. of subjects) leading to Decrease of Dose: Nausea,[3],0 subjects
same,Adverse Events (no. of subjects) leading to Decrease of Dose: Vomiting,[3],0 subjects
same,Adverse Events (no. of subjects) leading to Decrease of Dose: Chest pain,[4],0 subjects
same,Adverse Events (no. of subjects) leading to Decrease of Dose: Diarrhoea,[4],1 subjects
same,Adverse Events (no. of subjects) leading to Decrease of Dose: Erythema,[4],0 subjects
same,Adverse Events (no. of subjects) leading to Decrease of Dose: Headache,[4],2 subjects
same,Adverse Events (no. of subjects) leading to Decrease of Dose: Jaw pain,[4],0 subjects
same,Adverse Events (no. of subjects) leading to Decrease of Dose: Nausea,[4],1 subjects
same,Adverse Events (no. of subjects) leading to Decrease of Dose: Vomiting,[4],4 subjects
same,Adverse Events (no. of subjects) leading to Decrease of Dose: Chest pain,[5],1 subjects
same,Adverse Events (no. of subjects) leading to Decrease of Dose: Diarrhoea,[5],0 subjects
same,Adverse Events (no. of subjects) leading to Decrease of Dose: Erythema,[5],0 subjects
same,Adverse Events (no. of subjects) leading to Decrease of Dose: Headache,[5],5 subjects
same,Adverse Events (no. of subjects) leading to Decrease of Dose: Jaw pain,[5],1 subjects
same,Adverse Events (no. of subjects) leading to Decrease of Dose: Nausea,[5],1 subjects
same,Adverse Events (no. of subjects) leading to Decrease of Dose: Vomiting,[5],2 subjects
same,Adverse Events (no. of subjects) leading to Decrease of Dose: Chest pain,[6],0 subjects
same,Adverse Events (no. of subjects) leading to Decrease of Dose: Diarrhoea,[6],0 subjects
same,Adverse Events (no. of subjects) leading to Decrease of Dose: Erythema,[6],0 subjects
same,Adverse Events (no. of subjects) leading to Decrease of Dose: Headache,[6],1 subjects
same,Adverse Events (no. of subjects) leading to Decrease of Dose: Jaw pain,[6],0 subjects
same,Adverse Events (no. of subjects) leading to Decrease of Dose: Nausea,[6],2 subjects
same,Adverse Events (no. of subjects) leading to Decrease of Dose: Vomiting,[6],2 subjects
same,Adverse Events (no. of subjects) leading to Decrease of Dose: Chest pain,[7],0 subjects
same,Adverse Events (no. of subjects) leading to Decrease of Dose: Diarrhoea,[7],0 subjects
same,Adverse Events (no. of subjects) leading to Decrease of Dose: Erythema,[7],0 subjects
same,Adverse Events (no. of subjects) leading to Decrease of Dose: Headache,[7],0 subjects
same,Adverse Events (no. of subjects) leading to Decrease of Dose: Jaw pain,[7],0 subjects
same,Adverse Events (no. of subjects) leading to Decrease of Dose: Nausea,[7],0 subjects
same,Adverse Events (no. of subjects) leading to Decrease of Dose: Vomiting,[7],0 subjects
same,Adverse Events (no. of subjects) leading to Decrease of Dose: Chest pain,[8],0 subjects
same,Adverse Events (no. of subjects) leading to Decrease of Dose: Diarrhoea,[8],0 subjects
same,Adverse Events (no. of subjects) leading to Decrease of Dose: Erythema,[8],1 subjects
same,Adverse Events (no. of subjects) leading to Decrease of Dose: Headache,[8],0 subjects
same,Adverse Events (no. of subjects) leading to Decrease of Dose: Jaw pain,[8],0 subjects
same,Adverse Events (no. of subjects) leading to Decrease of Dose: Nausea,[8],0 subjects
same,Adverse Events (no. of subjects) leading to Decrease of Dose: Vomiting,[8],0 subjects
same,Adverse Events (no. of subjects) leading to Decrease of Dose: Chest pain,[9],1 subjects
same,Adverse Events (no. of subjects) leading to Decrease of Dose: Diarrhoea,[9],1 subjects
same,Adverse Events (no. of subjects) leading to Decrease of Dose: Erythema,[9],1 subjects
same,Adverse Events (no. of subjects) leading to Decrease of Dose: Headache,[9],8 subjects
same,Adverse Events (no. of subjects) leading to Decrease of Dose: Jaw pain,[9],1 subjects
same,Adverse Events (no. of subjects) leading to Decrease of Dose: Nausea,[9],4 subjects
same,Adverse Events (no. of subjects) leading to Decrease of Dose: Vomiting,[9],8 subjects
same,Subjects unable to tolerate the starting dose (number),[10],three
same,Subjects unable to tolerate the starting dose (percent),[10],15%
same,Subjects who tolerated the dose,"Cohorts 1 and 2, 0.2 mg once daily",One
same,Tolerability of the dose,"Cohorts 1 and 2, 0.4 mg once daily, highest dose administered (one subject)",not tolerated
same,Subjects who withdrew,"Cohorts 1 and 2, Day 1",One
same,AEs considered moderate in intensity,within the Compound 1 group,95%
same,AEs deemed by the investigator to be probably related to study drug,within the Compound 1 group,90%
